Tests used:
Human CCR1 = Human CCR1 (Homo sapiens (Human), UniProt P32246); experiment: Human CCR1 THP-1 binding assay; conditions: [125I]-MIP-1α competition, THP-1 cells
Method: For radioligand competition studies, a final concentration of 1×10^5 THP-1 monocytic leukemia cells are combined with 100 μg of LS WGA PS beads (Amersham, Cat.#: RPNQ 0260) in 40 μL of assay buffer (RPMI 1640 without phenol red, 50 mM HEPES, 5 mM MgCl2, 1 mM CaCl2, 0.1% BSA). The THP-1 cell/bead mixture was added to each well of a 384-well assay plate (PerkinElmer, Cat. #:6007899) containing test compound in 3-fold serial dilution, with final concentrations ranging from 8 μM to 0.14 nM. A final concentration of 0.1 nM [^125I]-MIP-1α (PerkinElmer, Cat. #NEX298) in 20 μL assay buffer was added to the reaction. Unlabeled MIP-1α was added in excess to some wells to determine non-specific binding. Sealed assay plates were incubated at room temperature for 12 h then analyzed by LEADseeker™.
The competition data of the test compound over a range of concentrations is plotted as percentage inhibition of radioligand specifically bound in the absence of test compound (percent of total signal). After correcting for non-specific binding, IC50 values are determined. The IC50 value is defined as the concentration of test compound needed to reduce [^125I]-MIP-1α specific binding by 50% and is calculated using the four parameter logistic equation to fit the normalized data. The Ki values are determined by application of the Cheng-Prusoff equation to the IC50 values, where Ki=IC50/(1+ligand concentration/Kd). The Kd of [^125I]-MIP-1α in THP-1 cells is 0.1 nM. Each experiment was run in duplicate.

Human PXR = Human PXR (Homo sapiens (Human), UniProt O75469); experiment: PXR transactivation assay; format: cell-based
Chain of Human PXR (O75469 whole entry): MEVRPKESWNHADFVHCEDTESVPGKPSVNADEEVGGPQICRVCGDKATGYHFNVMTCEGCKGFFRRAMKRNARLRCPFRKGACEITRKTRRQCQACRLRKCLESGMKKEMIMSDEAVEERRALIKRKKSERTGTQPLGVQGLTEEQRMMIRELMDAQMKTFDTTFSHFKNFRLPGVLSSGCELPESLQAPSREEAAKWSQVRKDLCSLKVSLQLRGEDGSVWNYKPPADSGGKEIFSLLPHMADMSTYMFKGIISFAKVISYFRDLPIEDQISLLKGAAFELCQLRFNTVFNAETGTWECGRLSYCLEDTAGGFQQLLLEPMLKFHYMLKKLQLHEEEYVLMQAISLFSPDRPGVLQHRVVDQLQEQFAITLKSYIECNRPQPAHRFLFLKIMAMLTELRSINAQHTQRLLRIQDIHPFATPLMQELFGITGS
From the text: The cell culture medium used is DMEM. […] Charcoal/dextran treated fetal bovine serum (FBS) was purchased from Hyclone (Logan, Utah). HepG2 cells were obtained from ATCC (Manassas, Va.). Human PXR-pcDNA3 and luciferase reporter containing CYP3A4 promoter, CYP3A-Luc, were generated at Bristol-Myers Squibb. White tissue culture (TC)-surface 384-well plates were purchased from Perkin Elmer (Boston, Mass.). Luciferase substrate (Steady-Glo) was purchased from Promega (Madison, Wis.). Control compounds rifampicin, mifepristone, and sulfinpyrazone were purchased from Sigma (St. Louis, Mo.).
Culture of HepG2 cells is performed in T175 flasks using DMEM containing 10% FBS. The transfection mixture contains 1 μg/mL of PXR-pcDNA3 plasmid DNA, 20 μg/ml of Cyp3A-Lue plasmid DNA, 90 μL/mL of Lipofectamine 2000, and serum-free medium. After incubating at room temperature for 20 minutes, the transfection mixture (1 ml per flask) is applied to the cells in fresh medium (20 mL per flask), and flasks incubated at 37° C. (5% CO2) overnight.
The flasks are then tapped vigorously to break up cell aggregates. After the addition of 8 mL of DMEM containing 5% charcoal/dextran-treated FBS, the entire mixture is transferred to conical tubes. Cells are then centrifuged at 1000 rpm for 5 minutes. Cell pellets are resuspended to a final count of ˜7×10^6 cells/ml, in freezing media (DMEM containing 20% serum and 10% DMSO). The cell suspension is aliquoted into 15-mL polypropylene tubes, 5 mL per tube. Cells are slowly frozen by placing in a Styrofoam-insulated container at −80° C. overnight. Vials are transferred to an Ultracold (−140° C.) freezer after 24 hours for long-term storage.
Vials of cryopreserved cells are thawed rapidly in a warm water bath for five minutes. Cells are pooled and diluted to 50 mL in a 50-mL conical vial. The thawed cells are centrifuged at 1500 rpm for 5 minutes to collect the cells and the supernatant discarded. Cells are then resuspended in fresh Media II (DMEM containing 5% charcoal/dextran-treated FBS, 1% Penicillin/Streptomycin, 100 μM Non-essential Amino Acids, 1 mM Sodium Pyruvate, and 2 mM L-Glutamine), counted using the Guava Cell Counter, and diluted to 1.6×10^5 cells/ml in the same media.
Fifty microliters of cell mixture is added to wells in columns 1-23 of white tissue-culture treated 384-well plates containing 0.25 μL of test compound dissolved in 100% DMSO. Fifty microliters of Media II is added to wells in column 24. The plates are incubated at 37° C. (5% CO2) for 24 hours, then 5 μL of Alamar Blue reagent (Trek Diagnostics, Cat #00-100) is added to each well. Plates are then incubated an additional two hours at 37° C., 5% CO2 and then one hour at room temperature. […] After the fluorescence is measured, 25 μL of luciferase substrate (Steady-Glo, Promega) is added to each well. The plates are incubated for fifteen minutes at room temperature, after which the luminescence is read on a PheraStar (BMG Labtech) plate reader.
Rifampicin (10 μM), a well-known agonist of PXR, is included in each plate as an internal standard and positive control. The data is then expressed as percent control (% CTRL), where the control signal is the signal from the 10 μM rifampicin and the blank signal is that from the DMSO vehicle. % CTRL=((Compound signal−Blank signal)/(Control signal−Blank signal))*100
The EC50 is defined as the concentration corresponding to half of the maximal response derived from the fitted 20-point curve as determined using a four-parameter logistic regression model. Additionally, compounds may also be reported as EC20 or EC60.

[1] = HepG2 cells, CYP3A-Luc reporter

Chain of Human CCR1 (P32246 whole entry): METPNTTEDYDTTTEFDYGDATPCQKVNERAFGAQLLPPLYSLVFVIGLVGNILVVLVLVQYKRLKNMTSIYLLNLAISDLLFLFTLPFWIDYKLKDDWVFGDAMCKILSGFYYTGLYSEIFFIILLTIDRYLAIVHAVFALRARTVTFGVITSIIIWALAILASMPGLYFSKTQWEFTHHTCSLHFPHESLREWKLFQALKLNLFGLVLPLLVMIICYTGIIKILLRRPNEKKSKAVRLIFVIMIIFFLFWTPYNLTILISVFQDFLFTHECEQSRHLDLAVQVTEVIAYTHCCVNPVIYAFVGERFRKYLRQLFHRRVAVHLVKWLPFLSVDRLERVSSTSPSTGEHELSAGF

Row | PXR EC60 (Human PXR; HepG2 cells, CYP3A-Luc reporter, reported as EC60) [nM] | Compound | Ki (Human CCR1) [nM] | EC50 (Human PXR; [1]) [nM] | PXR activation (in words) (Human PXR; in vitro screen)
1 |  | CC(C)[C@@H](NC(=O)C1CCCC1)C(=O)N1CC[C@](O)(c2ccc(Cl)cc2)C(C)(C)C1 [#460] | 0.7 | 530 | 
2 | 1120 | CC(C)CC(=O)N[C@@H](C(=O)N1CC[C@](O)(c2ccc(Cl)cc2)C(C)(C)C1)C(C)C [#466] | 2.6 |  | 
3 |  | CC(C)[C@@H](NC(=O)CC(C)(C)O)C(=O)N1CC[C@](O)(c2ccc(Cl)cc2)C(C)(C)C1 [#1356] | 3.7 | 1830 | 
4 |  | CC(C)[C@@H](NC(=O)NCC(C)(C)O)C(=O)N1CC[C@](O)(c2ccc(Cl)cc2)C(C)(C)C1 [Compound I] | 0.7 | > 25000 | not a significant activator
